Legend:
septin-7 [1] = assay: Immunoblot of septin-7 expression; assay type: cell-based; conditions: PANC-1, 1.0 and 10.0 μM, 48 hours
septin-6 [2] = target: septin-6 (Homo sapiens, UniProt Q14141); assay: Confocal analysis of septin-6; assay type: cell-based; conditions: SKOV-3, 1 μM, 48 hours
HER2+ PANC-1 xenograft = assay: PANC-1 xenograft tumor growth; assay type: in vivo, NSG mice; conditions: 25 mg/kg IP, 52 days; p<0.0001
Description: Cell Cycle Protein Expression. Cell Cycle Antibody Array (FullMoon BioSystems Inc, catalogue number: ACC:058), a high throughput ELISA based antibody array, designed for qualitative/semi-quantitative protein expression profiling was employed to investigate the protein changes after drug treatment. PANC-1 cells were lysed in buffer containing protease and phosphatase inhibitors (Cell Signaling, catalog number: 9803S). Total protein content was quantified by Bradford assay and equal amounts of proteins were analyzed in duplicate with arrays containing 4 to 6 spots for each of 60 probes (ACC058, Cell Cycle Antibody Array; Full Moon Biosystems, Sunnyvale, Calif.), according to manufacturer's instructions. After background correction, mean signal intensities were measured using FullMoon Inc's imaging services. Protein expressions in both the naïve and 328 treatment group was normalized to GAPDH signals. Confocal Analysis of Septin Disarrangement. To determine the impact of UR214-9 treatment on Septin-2 structure in cells, PANC-1 or JIMT-1 cells were seeded on glass slides and allowed to adhere overnight. The media was replaced with complete DMEM media supplemented with DMSO or UR214-9 (1 μM and 70 nM) and cells were incubated for 48 hours. […] The cells were stained with fluorescence linked secondary antibody for 1 hr under dark. […] Five cells were outlined and analyzed per field. […]

septin-6 [3] = assay: Immunoblot of septin-6 expression; assay type: cell-based; conditions: 48 hours
septin-7 [4] = target: T1, septin-7 (Homo sapiens, UniProt Q16181); assay: Confocal analysis of septin-7; assay type: cell-based; conditions: PANC-1 cells
T1 construct: investigate the response of other septin family members in PANC-1 cells upon treatment with UR214-9; endogenous in cells; host or cells: PANC-1, JIMT-1, SKOV-3 (confocal); PANC-1 (immunoblot)

pSTAT-3 = assay: Immunoblot of phosphorylated STAT-3; assay type: cell-based
PANC-1 cells = assay: Cell cycle analysis (PI, flow cytometry), PANC-1; assay type: cell-based, human
Description: (§1) For cell cycle analysis, BXPC-3 and PANC-1 and JIMT-1 cells (100,000/well) were seeded overnight in a 6 well dishes and allowed to adhere overnight. Media was replaced with fresh complete medium supplemented with DMSO or UR214-9 (100 nM and 3 μM) and cells were incubated for 72 hours. The media containing the drugs was removed and cells were washed twice with PBS and trypsinized gently. The cells were collected in 15 mL tubes, complete DMEM media was added to block trypsin and cells were centrifuged. The supernatants were removed and cells were gently treated with 70% cold-EtOH for 30 minutes. The fixed cells were centrifuged and the pellets obtained were collected in flow cytometry tubes and stained with preformulated PI/RNase solution (Cell Signaling Technology, catalog number: 4087s) for 30 minutes. The PI content was analyzed using a flow cytometer. Data was processed using Flowjo software.

BXPC-3 cells = assay: Cell cycle analysis (PI, flow cytometry), BXPC-3; assay type: cell-based, human; conditions: BXPC-3, 100 nM
Description: as §1

T1 sequence (Q16181 whole entry): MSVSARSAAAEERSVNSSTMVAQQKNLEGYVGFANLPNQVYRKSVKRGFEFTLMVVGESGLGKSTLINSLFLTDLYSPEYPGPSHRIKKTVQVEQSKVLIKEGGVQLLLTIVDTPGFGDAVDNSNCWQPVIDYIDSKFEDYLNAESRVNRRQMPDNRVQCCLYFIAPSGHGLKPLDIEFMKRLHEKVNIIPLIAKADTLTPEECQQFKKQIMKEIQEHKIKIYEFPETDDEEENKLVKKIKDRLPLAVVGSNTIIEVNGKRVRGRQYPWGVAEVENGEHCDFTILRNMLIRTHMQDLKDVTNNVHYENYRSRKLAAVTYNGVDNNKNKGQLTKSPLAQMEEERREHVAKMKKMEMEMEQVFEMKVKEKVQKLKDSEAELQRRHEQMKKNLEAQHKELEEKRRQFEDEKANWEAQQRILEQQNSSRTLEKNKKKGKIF
Sequence of septin-6 (Homo sapiens, UniProt Q14141) (Q14141 whole entry): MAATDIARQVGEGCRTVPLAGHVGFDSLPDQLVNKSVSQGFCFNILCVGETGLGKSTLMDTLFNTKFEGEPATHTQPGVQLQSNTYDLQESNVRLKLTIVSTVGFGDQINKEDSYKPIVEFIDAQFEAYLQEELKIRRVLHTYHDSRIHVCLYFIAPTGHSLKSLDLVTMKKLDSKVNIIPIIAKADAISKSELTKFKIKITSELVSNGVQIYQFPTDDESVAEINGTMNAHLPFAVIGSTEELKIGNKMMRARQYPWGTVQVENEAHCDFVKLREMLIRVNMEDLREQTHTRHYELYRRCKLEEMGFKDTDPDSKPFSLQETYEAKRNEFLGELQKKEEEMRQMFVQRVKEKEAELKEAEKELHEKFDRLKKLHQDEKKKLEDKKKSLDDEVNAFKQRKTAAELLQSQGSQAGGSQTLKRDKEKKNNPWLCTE

O=C(Nc1cc(Cl)nc(Cl)c1)Nc1cccc(SC(F)(F)F)c1F [UR214-9]
septin-7 expression (immunoblot) (septin-7 [1]): unaffected
septin-6 (confocal) (septin-6 [2]): decreased upon treatment
xenograft tumor growth (HER2+ PANC-1 xenograft): significantly delayed growth
septin-6 protein expression levels (western blot) (septin-6 [3]; MDA-MB-231, JIMT-1 and MCF-7 cells, 10 and 30 μM): does not alter the protein expression levels
septin-6 expression (immunoblot) (septin-6 [3]; PANC-1, 1.0 and 10.0 μM): unaffected
septin-7 (confocal) (septin-7 [4]): reduced expression
phosphorylation of STAT-3 (pSTAT-3; MDA-MB-231, JIMT-1 and MCF-7 cells, 10 and 30 μM, 24 hours): reduced phosphorylation of STAT-3
phosphorylated STAT-3 (pSTAT-3; PANC-1): reduced phosphorylated STAT-3
cell cycle distribution (PANC-1 cells; PANC-1, 100 nM): minor S-phase arrest
cell cycle distribution (PANC-1 cells; PANC-1, 3 μM): complete arrest in sub-G1/G0 phase
cell cycle distribution (BXPC-3 cells): no change in cell cycle distribution

Reference: patent US12433876B2, “Septin inhibitors for treatment of cancers” (UNIVERSITY OF ROCHESTER, priority 2019, dated 2025)
